Reference: PubChem BioAssay AID1963874 (Molecular Pharmacology Branch, DTP, NCI, 2024)

Tested on: 253994-281-T-J1-PDC KRAS-mutant spheroids with HUVEC/MSC, viability
Assay: Anticancer human tumor 253994-281-T-J1-PDC patient-derived colorectal carcinoma cell line growth inhibition [KRAS2]
Details: for IC50: curve of first compound; for viability, T/C: stronger effect = lower value
Method in brief: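 Combination screen of spheroid viability in tumor-cell co-cultures with endothelial (HUVEC) and mesenchymal stem cell stroma. Each agent was tested in half-log dilutions, topping at clinical Cmax or at 10 microM without a known Cmax.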

[1] = second compound 0.1 µM, first compound 0.0316 µM
[2] = second compound 0.1 µM, first compound 0.1 µM
[3] = second compound 0.1 µM, first compound 0.316 µM
[4] = second compound 0.1 µM, first compound 1 µM
[5] = second compound 0.1 µM, first compound 3.16 µM
[6] = second compound 0.1 µM, first compound 10 µM
[7] = second compound 0.316 µM, first compound 0.0316 µM
[8] = second compound 0.316 µM, first compound 0.1 µM
[9] = second compound 0.316 µM, first compound 0.316 µM
[10] = second compound 0.316 µM, first compound 1 µM
[11] = second compound 0.316 µM, first compound 3.16 µM
[12] = second compound 0.316 µM, first compound 10 µM
[13] = second compound 1 µM, first compound 0.0316 µM
[14] = second compound 1 µM, first compound 0.1 µM
[15] = second compound 1 µM, first compound 0.316 µM
[16] = second compound 1 µM, first compound 1 µM
[17] = second compound 1 µM, first compound 3.16 µM
[18] = second compound 1 µM, first compound 10 µM
[19] = second compound 3.16 µM, first compound 0.0316 µM
[20] = second compound 3.16 µM, first compound 0.1 µM
[21] = second compound 3.16 µM, first compound 0.316 µM
[22] = second compound 3.16 µM, first compound 1 µM
[23] = second compound 3.16 µM, first compound 3.16 µM
[24] = second compound 3.16 µM, first compound 10 µM
[25] = second compound 10 µM, first compound 0.0316 µM
[26] = second compound 10 µM, first compound 0.1 µM
[27] = second compound 10 µM, first compound 0.316 µM
[28] = second compound 10 µM, first compound 1 µM
[29] = second compound 10 µM, first compound 3.16 µM
[30] = second compound 10 µM, first compound 10 µM
[31] = second compound 0.1 µM, first compound 0.000316 µM
[32] = second compound 0.1 µM, first compound 0.001 µM
[33] = second compound 0.1 µM, first compound 0.00316 µM
[34] = second compound 0.1 µM, first compound 0.01 µM
[35] = second compound 0.316 µM, first compound 0.000316 µM
[36] = second compound 0.316 µM, first compound 0.001 µM
[37] = second compound 0.316 µM, first compound 0.00316 µM
[38] = second compound 0.316 µM, first compound 0.01 µM
[39] = second compound 1 µM, first compound 0.000316 µM
[40] = second compound 1 µM, first compound 0.001 µM
[41] = second compound 1 µM, first compound 0.00316 µM
[42] = second compound 1 µM, first compound 0.01 µM
[43] = second compound 3.16 µM, first compound 0.000316 µM
[44] = second compound 3.16 µM, first compound 0.001 µM
[45] = second compound 3.16 µM, first compound 0.00316 µM
[46] = second compound 3.16 µM, first compound 0.01 µM
[47] = second compound 10 µM, first compound 0.000316 µM
[48] = second compound 10 µM, first compound 0.001 µM
[49] = second compound 10 µM, first compound 0.00316 µM
[50] = second compound 10 µM, first compound 0.01 µM
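Further: spheroids exposed to agents for seven days before readout.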
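Wherever viability, T/C is given: percent of DMSO vehicle control viability.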

| SMILES | IC50 (second compound 0.1 µM) | IC50 (second compound 0.316 µM) | IC50 (second compound 1 µM) | IC50 (second compound 3.16 µM) | IC50 (second compound 10 µM) | viability, T/C [1] | viability, T/C [2] | viability, T/C [3] | viability, T/C [4] | viability, T/C [5] | viability, T/C [6] | viability, T/C [7] | viability, T/C [8] | viability, T/C [9] | viability, T/C [13] | viability, T/C [14] | viability, T/C [19] | viability, T/C [20] | viability, T/C [25] | viability, T/C [26] | also measured |
| --- | --- | --- | --- | --- | --- | --- | --- | --- | --- | --- | --- | --- | --- | --- | --- | --- | --- | --- | --- | --- | --- |
| CC(C)NCC(C(=O)N1CCN(c2ncnc3c2C(C)CC3O)CC1)c1ccc(Cl)cc1 (stereo not given) + CC1OCC2(CCN(c3cnc(Sc4ccnc(N)c4Cl)c(N)n3)CC2)C1N | > 10000 nM | > 10000 nM | > 10000 nM | > 10000 nM | < 31.6 nM | 107% | 101% | 99.8% | 90.7% | 85.2% | 85.8% | 95.1% | 91% | 86.4% | 84.7% | 77.9% | 57.8% | 59.5% | 36.3% | 41% | viability, T/C [10]: 84.7%; viability, T/C [11]: 101%; viability, T/C [12]: 84.3%; viability, T/C [15]: 72.9%; viability, T/C [16]: 83.5%; viability, T/C [17]: 83%; viability, T/C [18]: 93%; viability, T/C [21]: 63.9%; viability, T/C [22]: 70.6%; viability, T/C [23]: 77.7%; viability, T/C [24]: 84.3%; viability, T/C [27]: 41.1%; viability, T/C [28]: 51.9%; viability, T/C [29]: 58%; viability, T/C [30]: 55% |
| CC(C)n1nc(-c2ccc3oc(N)nc3c2)c2c(N)ncnc21 + CC1OCC2(CCN(c3cnc(Sc4ccnc(N)c4Cl)c(N)n3)CC2)C1N | > 100 nM | > 100 nM | 87.6 nM | 17.7 nM | < 0.316 nM | 76.5% | 56.9% |  |  |  |  | 68.5% | 49.8% |  | 57.6% | 49.4% | 44% | 36.5% | 39.2% | 28.2% | viability, T/C [31]: 97.9%; viability, T/C [32]: 100%; viability, T/C [33]: 101%; viability, T/C [34]: 81%; viability, T/C [35]: 93.6%; viability, T/C [36]: 76.7%; viability, T/C [37]: 78.9%; viability, T/C [38]: 77.7%; viability, T/C [39]: 85.3%; viability, T/C [40]: 73.2%; viability, T/C [41]: 82.8%; viability, T/C [42]: 67.8%; viability, T/C [43]: 62%; viability, T/C [44]: 64.6%; viability, T/C [45]: 67.3%; viability, T/C [46]: 55.2%; viability, T/C [47]: 40.1%; viability, T/C [48]: 40.7%; viability, T/C [49]: 43.2%; viability, T/C [50]: 44.5% |
| CC1(C)CCC(CN2CCN(c3ccc(C(=O)NS(=O)(=O)c4ccc(NCC5CCOCC5)c([N+](=O)[O-])c4)c(Oc4cnc5[nH]ccc5c4)c3)CC2)=C(c2ccc(Cl)cc2)C1 + CC1OCC2(CCN(c3cnc(Sc4ccnc(N)c4Cl)c(N)n3)CC2)C1N | > 10000 nM | > 10000 nM | > 10000 nM | 2820 nM | < 31.6 nM | 88.2% | 100% | 85.4% | 103% | 81.6% | 72.9% | 77% | 82.1% | 79.9% | 89.5% | 72.9% | 66.2% | 67.7% | 38.3% | 36.6% | viability, T/C [10]: 80.4%; viability, T/C [11]: 72%; viability, T/C [12]: 51.1%; viability, T/C [15]: 72.5%; viability, T/C [16]: 79.3%; viability, T/C [17]: 65.7%; viability, T/C [18]: 49.5%; viability, T/C [21]: 63.7%; viability, T/C [22]: 61%; viability, T/C [23]: 48.7%; viability, T/C [24]: 35%; viability, T/C [27]: 47.5%; viability, T/C [28]: 47.1%; viability, T/C [29]: 35%; viability, T/C [30]: 4.16% |
| Cn1ncnc1[C@H]1c2n[nH]c(=O)c3cc(F)cc(c23)N[C@@H]1c1ccc(F)cc1 + CC1OCC2(CCN(c3cnc(Sc4ccnc(N)c4Cl)c(N)n3)CC2)C1N | > 100 nM | > 100 nM | > 100 nM | > 100 nM | < 0.316 nM | 103% | 94.4% |  |  |  |  | 87.2% | 76.8% |  | 74.8% | 80.8% | 63.6% | 55.5% | 44.2% | 32.3% | viability, T/C [31]: 94.9%; viability, T/C [32]: 94.9%; viability, T/C [33]: 99.9%; viability, T/C [34]: 109%; viability, T/C [35]: 95.5%; viability, T/C [36]: 83.6%; viability, T/C [37]: 98.6%; viability, T/C [38]: 85.5%; viability, T/C [39]: 85.7%; viability, T/C [40]: 86%; viability, T/C [41]: 93.2%; viability, T/C [42]: 73.1%; viability, T/C [43]: 67.1%; viability, T/C [44]: 58.3%; viability, T/C [45]: 71.4%; viability, T/C [46]: 66%; viability, T/C [47]: 46.8%; viability, T/C [48]: 47.1%; viability, T/C [49]: 33.4%; viability, T/C [50]: 40.1% |
